Earlier results, collected in patent publication US20070014819A1, “Method of emulsifying phytosterol by natural saponin,emulsion prepared thereby and water dispersible phytosterol powder product” (WECKTECK BIOTECHNOLOGY COMPANY LIMITED, priority 2005, published 2007).

Tests used:
[1] = around the world
[2] = administered orally directly
[3] = purified

For `COCc1c(C(C)C)nc(C(C)C)c(/C=C/[C@@H](O)C[C@@H](O)CC(=O)O)c1-c1ccc(F)cc1` [Baycol, cerivastatin], which “people dead from the side effects” value [1] is on record?
Its value is “more than 100 people”.

Which “absorption rate in a human body” value [2] does the source give for `CC(C)CCC[C@@H](C)[C@H]1CC[C@H]2[C@@H]3CC=C4C[C@@H](O)CC[C@]4(C)[C@H]3CC[C@]12C` [cholesterol, reference compound] here?
The value was “more than 50%”.

With β-sitosterol [phytosterol] as the compound, how does the “solubility in water or oil and most solvents” value [3] read?
The value was “difficult to be dissolved”.

What about the “absorption rate in a human body” value [2] of the same compound?
Its value is “less than 5%”.

And the “reduction of total cholesterol in blood” value (cholesterol in blood; daily intake of 1.4 g for one month)?
The value was “about 14%”.

And the “reduction of the concentration of LDL” value (cholesterol in blood; daily intake of more than 1.3 g, FDA article)?
Its value is “effectively reduce”.
